According to patent publication US7087590B2, “19-norbufalin derivatives, their preparation and pharmaceutical compositions containing them” (Yissum Research Development Company of the Hebrew …, priority 2000, dated 2006):
Where two headings read alike, the source gives them in different places.

How the values were obtained:
[1] = test system: guinea pigs
From the text: Intraventricular pressure was monitored using a Millar catheter. […] The upper traces depict ECG recording from a subcutaneous electrode (lead II). The middle traces show left ventricle pressure and the lower traces the dp/dt (change in pressure with time).

[2] = test system: guinea pigs; remark: listed apart in the source
From the text: Guinea pigs were maintained under anesthesia, the jugular artery was catheterized and blood pressure was monitored via a pressure transducer. Two ECG electrodes were placed under the skin and ECG was monitored following amplification.

[3] = test system: guinea pigs; test: Toxicity on injection to guinea pigs; conditions: doses of up to 13 mg/kg
[4] = test system: Mg^++-ATPase; test: Mg++-ATPase activity in rat brain microsomal fraction (with 1 mM ouabain); assay type: biochemical
Protocol: (§1) Total and Na^+ and K^+ dependent ATPase activities were measured in rat brain microsomal fraction. Enzyme activity was measured by the colorimetric determination of inorganic phosphate after the incubation of microsomes (30 μg protein/reaction) at 37° C. in a solution (final volume 500 μl) containing (final concentrations) Tris-HCl ([…], pH 7.4), NaCl (100 mM), KCl (10 mM), MgCl2 (4 mM) and ATP (2 mM, Tris, vanadium free). After 10 minutes preincubation, the ATP was added to initiate the reaction. Reactions were terminated by the addition of 100 μl 5% trichloroacetic acid and the precipitate was removed by centrifugation. Mg^++-ATPase activity was determined by the addition of ouabain (1 mM) to the assay mixture.

[5] = test system: K562 cells; test: Morphological changes / differentiation of K562 cells; assay type: cell-based
From the text: Morphological changes of K562 cells, grown in appropriate media, was followed. Control cells after 2 days in culture. • FIG. 4b. Cells after 2 days in culture, the presence of 10^−8M ouabain. […] Cells after 2 days in culture, in the presence of 10^−8M compound 13b. […] Control cells after 6 days in culture. • FIG. 4e. Cells after 6 days in culture, in the presence of 10^−7M ouabain. […] Cells after 6 days in culture, in the presence of 10^−6M compound 13b.

[6] = test system: guinea pig atrial muscle; test: Heart muscle contractility of isolated atrial strips
Protocol: Experiments were conducted on frog atrial muscle or guinea pigs atrium. The animals were anaesthetized by MS22 (frogs) or pentobarbital (guinea pigs) (10 mg/kg). Their hearts were removed quickly into Krebs-Henseleit buffer. Atrial strips were mounted vertically in a chamber at 37° C. The muscle contractility was recorded by a transducer (FSG-01, Experimentia) connected to a computer Acodas software (DataQ instruments). […] The effect of compound 17b at 10 nM to frog atrial muscle. 2.

[7] = test system: Na^+,K^+-ATPase; test: Na+,K+-ATPase activity in rat brain microsomal fraction (colorimetric inorganic phosphate); assay type: biochemical
Protocol: as §1

## C[C@]12CC[C@H]3[C@@H](CC[C@@H]4C[C@@H](O)CC[C@@H]43)[C@@H]1[C@H](O)C[C@@H]2c1coc(CO)c1 (single isomer, unassigned) [13-3 (β isomer), 4-(3′β,15′βdihydroxy-5β-estran-17β-yl)furan-2-methyl alcohol]
[1]; 2.6 mg/kg injected to guinea pigs (FIG. 5A)
  Cardiac contractility in vivo (in words): induced an elevation in cardiac contractility

## C[C@]12CC[C@H]3[C@@H](CC[C@@H]4C[C@@H](O)CC[C@@H]43)[C@@H]1[C@H](O)C[C@@H]2c1coc(CO)c1 [Compound 13-3, 4-(3′β,15′βdihydroxy-5β-estran-17β-yl)furan-2-methyl alcohol]
[1]; β isomer of 13-3, 2.6 mg/kg, 10 min after injection, control 5.52
  LVEDP (left ventricle end diastolic pressure): 51.70 mmHg
[1]; β isomer of 13-3, 2.6 mg/kg, 10 min after injection, control 10.83
  LVSP (left ventricle systolic pressure): 67.88 mmHg
[1]; β isomer of 13-3, 2.6 mg/kg, 10 min after injection, control 226.2
  HR (heart rate): 295.74 beat/min
[1]; β isomer of 13-3, 2.6 mg/kg, 10 min after injection, control 2248.19
  dp/dt (change in pressure with time): 3319.11 mmHg/sec
[1]; β isomer of 13-3, 2.6 mg/kg, 33 min post injection, control 5.52
  LVEDP (left ventricle end diastolic pressure): 51.98 mmHg
[1]; β isomer of 13-3, 2.6 mg/kg, 33 min post injection, control 10.83
  LVSP (left ventricle systolic pressure): 124.61 mmHg
[1]; β isomer of 13-3, 2.6 mg/kg, 33 min post injection, control 226.2
  HR (heart rate): 325 beat/min
[1]; β isomer of 13-3, 2.6 mg/kg, 33 min post injection, control 2248.19
  dp/dt (change in pressure with time): 4215.86 mmHg/sec
[1]; β isomer of 13-3, 2.6 mg/kg, 7 hr. post injection, control 5.52
  LVEDP (left ventricle end diastolic pressure): 37.57 mmHg
[1]; β isomer of 13-3, 2.6 mg/kg, 7 hr. post injection, control 10.83
  LVSP (left ventricle systolic pressure): 107.45 mmHg
[1]; β isomer of 13-3, 2.6 mg/kg, 7 hr. post injection, control 226.2
  HR (heart rate): 340 beat/min
[1]; β isomer of 13-3, 2.6 mg/kg, 7 hr. post injection, control 2248.19
  dp/dt (change in pressure with time): 5146.12 mmHg/sec
[2]; 2.5 mg/kg subcutaneously 30 minutes before 2.5 mg/kg digoxin, guinea pigs (FIG. 6C)
  Effect on digoxin-induced cardiac arrhythmia: prevented induction of cardiac arrhythmia
[3]
  Toxicity when injected to guinea pigs: not toxic

## C[C@]12CC[C@H]3[C@@H](CC[C@@H]4CC(OCc5ccccc5)CC[C@@H]43)[C@@H]1[C@H](O)C[C@@H]2c1coc(C2OCCO2)c1 (stereo partly drawn) [Compound 13b, 4-(′3-benzyloxy-15′β-hydroxy-5β-estran-17′β-yl)furan-2-carbaldehyde ethylene acetal]
[4]; 1 nM compound
  Mg^++-ATPase activity (% of control): 100 % of control
[4]; 10 nM compound
  Mg^++-ATPase activity (% of control): 86 % of control
[4]; 100 nM compound
  Mg^++-ATPase activity (% of control): 88 % of control
[4]; 1000 nM compound
  Mg^++-ATPase activity (% of control): 89 % of control
[4]; 10000 nM compound
  Mg^++-ATPase activity (% of control): 86 % of control
[5]; 10^−6M, 6 days in culture
  K562 cell morphology / differentiation: Cell elongation, indicative of differentiation
[5]; 10^−8M, 2 days in culture
  K562 cell morphology / differentiation: differentiation manifested in cells elongation
[6]; guinea pig atrial muscle preparation, after 10 minutes (FIG. 3a)
  Increase in the force of contraction: about 30%
[6]; guinea pig muscle strip, 10 minutes after addition (FIG. 3a)
  Heart muscle contractility (in words): increase of heart muscle contractility is evident
[3]
  Toxicity when injected to guinea pigs: not toxic
[7]; 1 nM compound
  Na^+, K^+-ATPase activity (% of control): 100 % of control
[7]; 10 nM compound
  Na^+, K^+-ATPase activity (% of control): 64 % of control
[7]; 100 nM compound
  Na^+, K^+-ATPase activity (% of control): 38 % of control
[7]; 1000 nM compound
  Na^+, K^+-ATPase activity (% of control): 22 % of control
[7]; 10000 nM compound
  Na^+, K^+-ATPase activity (% of control): 2 % of control

## C[C@H]1O[C@@H](O[C@H]2[C@@H](O)C[C@H](O[C@H]3[C@@H](O)C[C@H](O[C@H]4CC[C@@]5(C)[C@H](CC[C@@H]6[C@@H]5C[C@@H](O)[C@]5(C)[C@@H](C7=CC(=O)OC7)CC[C@]65O)C4)O[C@@H]3C)O[C@@H]2C)C[C@H](O)[C@@H]1O [Digoxin, digoxin, reference compound]
[1]; 2 mg/kg injected to guinea pigs
  Cardiac contractility in vivo (in words): increase in contractilty
[1]; 2 mg/kg, guinea pigs (FIG. 5B)
  Bradycardia: induced bradycardia
[1]; digoxin 2 mg/kg, guinea pig
  Death after: 40 min
[1]; digoxin 2 mg/kg, control 17.3
  LVEDP (left ventricle end diastolic pressure): 49.78 mmHg
[1]; digoxin 2 mg/kg, control 75
  LVSP (left ventricle systolic pressure): 232.4 mmHg
[1]; digoxin 2 mg/kg, control 327
  HR (heart rate): 300 beat/min
[1]; digoxin 2 mg/kg, control 1620.7
  dp/dt (change in pressure with time): 4248.4 mmHg/sec
[2]; 2.5 mg/kg subcutaneously, guinea pigs (FIG. 6B)
  Time to lethal cardiac arrhythmia: 2.5 h

## C[C@@H]1O[C@@H](O[C@H]2C[C@@H](O)[C@]3(CO)[C@H]4[C@H](O)C[C@]5(C)[C@@H](C6=CC(=O)OC6)CC[C@]5(O)[C@@H]4CC[C@]3(O)C2)[C@H](O)[C@H](O)[C@H]1O [ouabain, reference compound]
[5]; 10^−7M, 6 days in culture
  K562 cell morphology / differentiation: Cell degradation and death is evident
[5]; 10^−8M, 2 days in culture
  K562 cell morphology / differentiation: does not show any effects
